Entries after “also recorded” stand apart in the source; their conditions may differ. Where two headings read alike, the source gives them in different places.
Columns and labels:
[1] = target: T1, cyt c/TOCL complexes (Equus caballus, UniProt P00004); test: Peroxidase activity of cyt c/TOCL complexes, H2O2-induced oxidation of Amplex Red to resorufin; type: biochemical; conditions: for inhibition of cyt c peroxidase compared with TPP-ISA: ratio of compound to cyt c of 2.5:1, TOCL:cyt c 25:1; for inhibition of peroxidase activity of cyt c/TOCL complexes (Amplex Red oxidation): cyt c 1 μM, CL/cyt c 25:1, 50 μM Amplex Red, 50 μM H2O2, 20 min
T1 construct: purchased Sigma (St. Louis, Mo.)
T1 sequence (P00004 2-105 limits assumed, one chain of several): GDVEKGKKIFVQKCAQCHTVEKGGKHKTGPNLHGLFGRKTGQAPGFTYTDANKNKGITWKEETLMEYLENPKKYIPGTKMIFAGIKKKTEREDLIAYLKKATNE
Procedure: Conditions: cyt c (1 μM), H2O2 (50 μM), Amplex Red (50 μM). Experiments were performed in 20 mM HEPES buffer (pH 7.4) containing DTPA (100 μM), cyt c was incubated with DOPC/TOCL liposomes (1:1) at a ratio of TOCL:cyt c of 25:1.
(§1) Peroxidase activity of cyt c was assessed by oxidation of Amplex Red, etoposide or TLCL (tetra-linoleoyl-cardiolipin). Measurements of Amplex Red oxidation were performed using fluorescence of its oxidation product resorufin. Cyt c (1 μM) was incubated with tetra-oleoyl-cardiolipin (TOCL) containing liposomes (CL/cyt c ratio 25:1). Then 50 μM Amplex Red and 50 μM H2O2 were added, and the incubation proceeded for an additional 20 min. Fluorescence was detected by employing a “Fusion α” universal microplate analyzer and by using an excitation wavelength of 535 nm and an emission wavelength of 590 nm. EPR spectra of etoposide phenoxyl radicals were recorded at 25° C. in gas permeable Teflon tubings (inner diameter, 0.8 mm; thickness, 0.013; Alpha Wire Corp., Elizabeth, N.J.). Volume of samples was 60 μL. The spectra were recorded under the following conditions: 335.3 mT, center field; 2 mT, sweep width; 0.04 mT, field modulation; 10 mW, microwave power; 0.1 s, time constant; 2 min, time scan. The time course of the etoposide radical EPR signal was obtained by repeated scanning of the field (0.15 mT, sweep width; 335.3 mT, center field) corresponding to a part of the EPR signal. Peroxidase activity of mitochondria was determined by the formation of resorufin from Amplex Red. Isolated mouse liver mitochondria (0.6 mg/ml) were incubated in the presence of 100 μM Amplex Red and 2 mM tert-butyl hydroperoxide (tBOOH). After incubation at room temperature for 20 min, fluorescence of resurufin was measured.
Small unilamellar liposomes were prepared from dioleoylphosphatidylcholine (DOPC) and TOCL (1:1 ratio) or DOPC and TLCL (4:1 ratio) by sonication in HEPES buffer (20 mM with 100 μM diethylene triamine pentaacetic acid (DTPA) (pH 7.4) 3×60 sec, relaxation time 2 min, 4° C.).
(§2) Peroxidase activity of cyt c was assessed by oxidation of Amplex Red, etoposide or TLCL as described above.

[2] = target: T1, cyt c/TOCL complexes; test: Haem-nitrosylation of cyt c/TOCL by nitroxyl from Angeli's salt, EPR at 77 K; type: biochemical; conditions: Angeli's salt 500 μM, 30 min
Procedure: Heme nitrosylation: Cyt c (100 μM) was incubated with a nitroxyl donor, Angeli's salt (500 μM), for 30 min at room temperature. The reaction was stopped by freezing the samples in liquid nitrogen. The EPR spectra of heme-nitrosylated cyt c were measured at 77 K under the following instrumental settings: center field, 3200 G; scan range, 500 G; field modulation, 5 G; microwave power, 10 mW; time constant, 0.1 s; scan time, 4 min; receiver gain, 10^3.

[3] = target: T1, cyt c/TOCL complexes; test: Low-temperature (77 K) EPR of protein-immobilized (tyrosyl) radicals of cyt c/TOCL with H2O2; type: biochemical; conditions: cyt c 100 μM, H2O2 500 μM, EPR at 77 K
Procedure: EPR spectra of protein-immobilized (tyrosyl) radicals were recorded after the addition of H2O2 (500 μM) to cyt c (100 μM) incubated with tetra-oleoyl-cardiolipin (TOOL) liposomes at room temperature. After incubation for 20 s, the reaction was stopped by freezing the samples in liquid nitrogen. EPR spectra were obtained on a JEOL-REIX spectrometer with 100 kHz modulation (JEOL, Kyoto, Japan). EPR spectra from frozen samples were recorded at 77 K under the following conditions: center field, 3230 G; sweep width, 100 G; field modulation, 5 G; microwave power, 1 mW; receiver gain, 10^3; time constant, 0.1 s; time scan, 4 min.

[4] = target: T1, cyt c/TOCL complexes; test: Peroxidase activity of cyt c/TOCL complexes, H2O2-induced oxidation of etoposide (EPR of phenoxyl radicals); type: biochemical; conditions: H2O2-driven oxidation of etoposide
Procedure: as §1, §2

[5] = test system: mouse embryonic cells; test: Actinomycin D-induced cell death in mouse embryonic cells (Annexin V/PI); type: cell-based; conditions: 1 to 100 μM (BSA complexes), 100 ng ml^−1 ActD, 18 h
Procedure: IEOA or ISA were incubated in the presence of fatty acid-free bovine serum albumin (BSA) (Sigma) at a molar ratio of 5:1 at 37° C. for 30 min. Mouse embryonic cells were incubated with IEOA/BSA or ISA/BSA (100 μM) complexes for 30 min before the addition of 100 ng ml^−1 actinomycin D (ActD). After 18-h incubation with ActD, cell viability was analysed by flow cytometry using an Annexin V/PI kit. ActD-induced cell death in ˜34.2% of cells. […] Representative data with 100 μM IEOA/BSA and ISA/BSA complexes are shown. Data are means±s.d., n=3.

[6] = test system: mouse liver mitochondria; test: Peroxidase activity of isolated mouse liver mitochondria (Amplex Red, tBOOH); type: biochemical; conditions: 0.6 mg/ml mitochondria, 100 μM Amplex Red, 2 mM tBOOH, 20 min
Procedure: Peroxidase activity of cyt c was assessed by oxidation of Amplex Red, etoposide or TLCL (tetra-linoleoyl-cardiolipin). Measurements of Amplex Red oxidation were performed using fluorescence of its oxidation product resorufin. Cyt c (1 μM) was incubated with tetra-oleoyl-cardiolipin (TOCL) containing liposomes (CL/cyt c ratio 25:1). Then 50 μM Amplex Red and 50 μM H2O2 were added, and the incubation proceeded for an additional 20 min. Fluorescence was detected by employing a “Fusion α” universal microplate analyzer and by using an excitation wavelength of 535 nm and an emission wavelength of 590 nm. EPR spectra of etoposide phenoxyl radicals were recorded at 25° C. in gas permeable Teflon tubings (inner diameter, 0.8 mm; thickness, 0.013; Alpha Wire Corp., Elizabeth, N.J.). Volume of samples was 60 μL. The spectra were recorded under the following conditions: 335.3 mT, center field; 2 mT, sweep width; 0.04 mT, field modulation; 10 mW, microwave power; 0.1 s, time constant; 2 min, time scan. […] Peroxidase activity of mitochondria was determined by the formation of resorufin from Amplex Red. […] After incubation at room temperature for 20 min, fluorescence of resurufin was measured.
Finally, the ability of ISA and IEOA to inhibit peroxidase activity using isolated mouse liver mitochondria was assessed. […]

[7] = target: T2, native ferri-cyt c (Equus caballus, UniProt P00004); test: Liquid-He (20 K) X-band EPR of haem-iron ligation, native cyt c; type: binding; conditions: pH 7.4, 20 K, no TOCL
T2 construct: purchased Sigma (St. Louis, Mo.)
T2 sequence (P00004 2-105 limits assumed): as the sequence (P00004 2-105 limits assumed, one chain of several) above
Procedure: (§3) Conditions: native cyt c (300 μM), IEOA/cyt c (2:1), TOCL/IEOA/cyt c (20:2:1), 20 mM HEPES buffer, pH 7.4. Samples (200 μl) were placed in 3 mm o.d. suprasil quartz EPR tubes and frozen in liquid nitrogen for subsequent spectroscopic measurements. X-band (9 GHz) EPR spectra were recorded on a Bruker ESP 300 spectrometer equipped with an Oxford Instruments ESR 910 flow cryostat for ultra-low-temperature measurements. Spectra were recorded at 9.8 G modulation amplitude and 200 μW microwave power. The microwave frequency was calibrated by a frequency counter and the magnetic field was calibrated with a gaussmeter. The temperature was calibrated with carbon-glass resistors (CGR-1-1000) from LakeShore. This instrument and the software (SpinCount) to analyse the EPR spectra were provided by Professor Mike Hendrich, Carnegie Mellon University.

[8] = TPP-IOA levels in plasma, small intestine and bone marrow after i.p. injection (LC-MS/MS, SRM); type: in vivo; conditions: C57BL/6NTac, mouse, ip, 10 min after i.p. injection, 5 mg/kg body weight
Procedure: TPP-IOA and its hydrolysis products were extracted from plasma, small intestine and bone marrow tissue 10 min after TPP-IOA i.p. injection into animals (5 mg/kg body weight), using a standard Folch procedure for extraction of lipids^37. In one set of runs, intact TPP-IOA was assessed by SRM as described below. In an identical set of duplicate runs, hydrolyzed TPP-IOA (in the form of the TPP moiety, see below) was assessed by a different mass spectrometric method, MRM, as described below.
TPP-IOA (m/z 651) was assessed by SRM in a LCQ-Duo ion trap mass spectrometer (Thermo, Inc., Waltham, Mass.). Chromatography was performed on an Eclipse XDB reverse phase C18 column (4.6 mm×15 cm, Agilent Technologies, Santa Clara, Calif.) using an isocratic solvent system consisting of acetonitrile:water:triethylamine:acetic acid (450:50:2.5:2.5, v/v/v/v) and a flow rate of 0.4 ml/min. The transition measured was 651>303 (TPP-IOA to TPP-propyl moiety—water) within a 0.5 Da window. Instrument conditions were as follows: spray voltage, 4.5 kV, positive mode; sheath gas, 30; capillary temperature, 250° C.; tube lens, 20; capillary voltage, 26. The instrument was tuned for the appropriate parent ion and all parameters were optimized to maximize the transition during the SRM including tuning under appropriate flow conditions.

[9] = target: T3, cyt c/TOCL complex (Equus caballus, UniProt P00004); test: Liquid-He (20 K) X-band EPR of haem-iron ligation, cyt c/TOCL complex; type: binding
T3 construct: purchased Sigma (St. Louis, Mo.)
T3 sequence (P00004 2-105 limits assumed, one chain of several): as above
Procedure: as §3

Structure (SMILES) | inhibition of cyt c peroxidase compared with TPP-ISA [1] | inhibition of peroxidase activity of cyt c/TOCL complexes (Amplex Red oxidation) [1] | EPR signal of haem-nitrosylated cyt c/TOCL [2] | H2O2-dependent generation of protein-immobilized (tyrosyl) radicals [3] | inhibition of peroxidase activity of cyt c/TOCL complexes (etoposide oxidation, EPR) [4] | protection against ActD-induced cell death [5] | peroxidase activity of isolated mouse liver mitochondria [6] | also measured
CCCCCCCCCCC(CCCCCCC(=O)OCCC[P+](c1ccccc1)(c1ccccc1)c1ccccc1)n1ccnc1.[Br-] (racemic) [TPP-8-imidazole-stearic acid, (3-((8-(1H-imidazol-1-yl)octadecanoyl)oxy)propyl)triphenylphosphonium bromide] | significantly better inhibitors of cyt c peroxidase than TPP-ISA | – | – | – | – | – | – | –
CCCCCCC(C/C=C/CCCCCCCC(=O)O)n1ccnc1 (stereo not drawn) [IEOA, (E)-12-(1H-imidazol-1-ium-1-yl)octadec-9-enoic acid] | – | potent inhibitors | concentration-dependent decrease of the EPR signal | effectively quenched generation of Tyr. radicals | potent inhibitors | exerted no protection against apoptosis; also recorded: no detectable protection | suppressed peroxidase activity in a concentration-dependent manner | –
CCCCCCC(C/C=C\CCCCCCCC(=O)O)n1ccnc1 (stereo not drawn) [IOA, 12-(Imidazol-1-yl)-(Z)-9-octadecaenoate] | – | potent inhibitors | – | effectively quenched generation of Tyr. radicals | potent inhibitors | – | – | EPR spectrum (axial haem coordination) of native ferri-cyt c on addition of compound [7]: no change in the EPR spectrum
CCCCCCC(C/C=C\CCCCCCCC(=O)OCCC[P+](c1ccccc1)(c1ccccc1)c1ccccc1)n1ccnc1.[Br-] (stereo not drawn) [TPP-IOA, 9-(Z)-(3-(12-imidazol-1-yl)octadeca-9-enoyloxy)propyl)triphenylphosphonium bromide] | – | – | – | – | – | – | – | concentration at 10 min ([8]; bone marrow, read-out: TPP-IOA level in bone marrow): 0.2 ng/g; concentration at 10 min ([8]; plasma, read-out: TPP-IOA level in plasma): 54 ng/mL; concentration at 10 min ([8]; small intestine, read-out: TPP-IOA level in small intestine): 1.5 ng/g
CCCCCCC(CCCCCCCCCCC(=O)O)n1ccnc1 (stereo not drawn) [ISA, 12-(1H-imidazol-1-yl)octadecanoic acid] | – | potent inhibitors | concentration-dependent decrease of the EPR signal | – | potent inhibitors | exerted no protection against apoptosis; also recorded: no detectable protection | suppressed peroxidase activity in a concentration-dependent manner | change of haem-iron coordination in cyt c (Met80 substituted by imidazole moiety) [9]: able to change haem-iron coordination in cyt c
CCCCCCCCCCCCC(CCCCC(=O)OCCC[P+](c1ccccc1)(c1ccccc1)c1ccccc1)n1ccnc1.[Br-] (racemic) [TPP-6-imidazole-stearic acid, (3-((6-(1H-imidazol-1-yl)octadecanoyl)oxy)propyl)triphenylphosphonium bromide] | significantly better inhibitors of cyt c peroxidase than TPP-ISA | – | – | – | – | – | – | –

Reference: patent publication US9365597B2, “Mitochondria-targeted inhibitors of cytochrome c peroxidase for protection from apoptosis” (Brock University, priority 2011, dated 2016)
